Data reported in patent US4650868A, “7-deazapurine derivatives useful as antitumor agents” (Takeda Chemical Industries, Ltd., priority 1984, dated 1987).
≈ marks a conversion by molar mass, not a printed value.

Key:
[1] = test system: rat liver tRNA-guanine transglycosylase; assay: Uptake of the compound into [3H]guanine-labeled tRNA; type: biochemical; conditions: 0.02 OD260 of compound, 37° C., 17 hours, [3H]guanine labeled tRNA (8000 cpm)
Experimental: [^3 H] guanine labeled tRNA*) (8000 cpm), 70 mM of […], 60 mM of magnesium chloride, 0.5 unit of rat liver tRNA-guanine transglycosylase and 0.02 OD260 of the compound obtained in Example 1 to be described hereinafter were prepared to the total volume of 100 μl, and the reaction was allowed to proceed at 37° C. for 17 hours. The reaction solution was applied to a Whatman 3 MM filter paper (produced by Whatman Co., U.S.A.), which was washed three times with a 5% aqueous solution of trichloroacetic acid and once successively with ethanol/ether (1:1) and ether alone.
(*) tRNA with the first letter of its anticodon labeled with [^3 H]-guanine.

[2] = test system: Meth A tumor cells; assay: Meth A tumor subcutaneously transplanted into BALB/c mouse; type: in vivo; conditions: 100 mg/kg intraperitoneally once a day for 14 consecutive days from day 4; tumor weight on 35th day after transplantation
Experimental: 5×10^4 Meth A tumor cells were subcutaneously transplanted into a BALB/c mouse weighing 20 g, and starting with the fourth day after transplantation, a solution of the compound as obtained in Example 3 to be described hereinafter in 0.1 ml of distilled water prepared in such a way that a dose might be 100 mg/kg was intraperitoneally injected into the mouse once a day for 14 consecutive days. On the 35th day after transplantation, the tumor node was enucleated and its weight (T) was measured.

[3] = test system: L5178Y mouse tumor cells; assay: Growth inhibition of cultured L5178Y cells; type: cell-based; conditions: 72 hours incubation with drug, cell count, non-treated control = 100%, read-out: IC50 (50% growth inhibitory concentration)
Experimental: 1×10^4 L5178Y mouse tumor cells were suspended in 2 ml of a RPMI-1640 medium (produced by Nissui Pharmaceutical Co. of Japan) containing 10% of bovine fetal serum, 20 μM of 2-mercaptoethanol and 100 μg/ml of Kanamycin, and incubated at 37° C. for 24 hours before addition of the drug. Using the above culture fluid as a diluent, the compound as obtained in Example 3 to be described hereinafter was diluted 1/4-fold in a series of 5 stages and added to the culture medium in such a manner that the maximum concentration of the compound might be 200 μg/ml. The dilutions were further incubated for 72 hours, at the end of which time the cells were counted with use of a counter and the IC50 (50% growth inhibitory concentration) was calculated with the count for the non-treated control group being taken as 100%. The IC50 value was 2.0 μg/ml.

| uptake of the test compound into tRNA [1] | IC50 [3] | SMILES | tumor inhibition rate (T/C) [2] |
| --- | --- | --- | --- |
| 120% | – | COc1ccccc1NCc1c[nH]c2nc(N)[nH]c(=O)c12 [Example 1, 2-amino-5-(2-methoxyphenylaminomethyl)pyrrolo[2,3-d]pyrimidin-4-one] | – |
| 140% | – | COc1cc(NCc2c[nH]c3nc(N)[nH]c(=O)c23)cc(OC)c1OC [Example 2 (2), 2-Amino-5-(3,4,5-trimethoxyphenylaminomethyl)pyrrolo[2,3-d]pyrimidin 4-one] | – |
| – | 2 µg/mL (≈ 7.4 µM) | Nc1ccc(NCc2c[nH]c3nc(N)[nH]c(=O)c23)cc1 [Example 3, 2-amino-5-(4-aminophenylaminomethyl)pyrrolo[2,3-d]pyrimidin-4-one] | 36% |
